In paper PMC9138790 (2022) one finds binding data, which are given here for one molecule.

In this assay the test system is polyA (polyadenine) (DNA, polymer) A. Nature of the assay: differential pulse voltammetry, dAdo oxidation signal decrease. The note with it: 0.1 M acetate buffer pH 4.7; 10 µg/mL CIN, 20 min; dAdo signal falls to S% 50.

For `C[C@@H](NCCCc1cccc(C(F)(F)F)c1)c1cccc2ccccc12`, the binding entry was “yes”.
